Laboratory results: patent US20210130346A1, “Bromodomain Inhibitors” (AbbVie Inc., priority 2017, published 2021)

Legend:
BRD4 (BDI_K57-E168) = BRD4 (BDI_K57-E168) (Homo sapiens, UniProt O60885); assay: TR-FRET bromodomain binding assay, BRD4 first bromodomain (BDI); settings: mean Ki; 12 nM His tagged BRD4 (BDI_K57-E168), 100 nM Alexa647 probe; Ki calculated from IC50, probe Kd and probe concentration
Method: A time-resolved fluorescence resonance energy transfer (TR-FRET) assay was used to determine the affinities of compounds of the Examples listed in Table 1 for each bromodomain of BRD4. […] An Alexa647-labeled BET-inhibitor was used as the fluorescent probe in the assay.
Compound dilution series were prepared in DMSO via an approximately 3-fold serial dilution. Compound dilutions were added directly into white, low-volume assay plates (Perkin Elmer Proxiplate 384 Plus# 6008280) using a Labcyte Echo in conjunction with Labcyte Access and Thermo Multidrop CombinL robotics. Compounds were then suspended in eight microliters (μL) of assay buffer (20 mM Sodium Phosphate, pH 6.0, 50 mM NaCl, 1 mM Ethylenediaminetetraacetic acid disodium salt dihydrate, 0.01% Triton X-100, 1 mM DL-Dithiothreitol) containing His-tagged bromodomain, Europium-conjugated anti-His antibody (Invitrogen PV5596) and Alexa-647-conjugated probe.
After a one-hour equilibration at room temperature, TR-FRET ratios were determined using an Envision multilabel plate reader (Ex 340, Em 495/520).
TR-FRET data were normalized to the means of 24 no-compound controls (“high”) and 8 controls containing 1 μM un-labeled probe (“low”). Percent inhibition was plotted as a function of compound concentration and the data were fit with the 4 parameter logistic equation to obtain IC50s. Inhibition constants (Ki) were calculated from the IC50s, probe Kd and probe concentration.

SKM-1 xenograft tumors = assay: Growth inhibition of SKM-1 xenograft tumors implanted in mice; assay type: in vivo, female SCID mice; settings: SCID mice
Method: The effect of compounds of the examples to inhibit the growth of SKM-1 xenograft tumors implanted in mice was evaluated. A suspension of cancer cells (5×10^6 per 0.1 mL) prepared in RPMI culture medium (Invitrogen, Carlsbad, Calif.) was diluted 1:1 with a solution of Matrigel™ (BD Biosciences, Franklin Lakes, N.J.) and inoculated subcutaneously into the right hind flank of female SCID (Charles River Labs) mice. Randomization into treatment and vehicle control groups (8/group) occurred when the mean tumor volume reached approximately 250 mm^3. Example 3 was formulated in 10% ethanol, 30% PEG 400, 60% Phosol-50PG. Example 34 was formulated as a nanosuspension (2% low viscosity hydroxypropylcellulose polymer/0.2% sodium dodecyl sulfate in water). Administration of compound or vehicle was initiated on the day following randomization and continued for […]. Tumors were measured twice a week throughout the treatment period using a pair of calipers and tumor volumes were calculated according to the formula V=L×W^2/2 (V: volume, mm^3; L: length, mm. W: width, mm). Tumor growth inhibition was calculated based on the mean tumor volume measured on the first day that the mean volume of the vehicle group exceeded 2000 mm^3 according to the formula: % TGI=100−(100×(mean tumor volume of treatment group/mean tumor volume of control group))

Compound | Ki (BRD4 (BDI_K57-E168)) [µM] | also measured
CN1C(=O)[C@]2(C[C@@H]2c2cn(C)c(=O)c3[nH]c(C(=O)NC4CC4)cc23)c2ccccc21 [Example 3, N-cyclopropyl-6-methyl-4-[(1S,2R)-1′-methyl-2′-oxo-1′,2′-dihydrospiro[cyclopropane-1,3′-indol]-2-yl]-7-oxo-6,7-dihydro-1H-pyrrolo[2,3-c]pyridine-2-carboxamide] | 3.25 | % TGI (SKM-1 xenograft tumors; dose 5 mg/kg/d, formulated in 10% ethanol, 30% PEG 400, 60% Phosol-50PG): 27%; % TGI (SKM-1 xenograft tumors; dose 15 mg/kg/d, formulated in 10% ethanol, 30% PEG 400, 60% Phosol-50PG): 33%; % TGI (SKM-1 xenograft tumors; dose 45 mg/kg/d, formulated in 10% ethanol, 30% PEG 400, 60% Phosol-50PG): 43%; % TGI (SKM-1 xenograft tumors; dose 100 mg/kg/d, formulated in 10% ethanol, 30% PEG 400, 60% Phosol-50PG): 58%; % TGI (SKM-1 xenograft tumors; dose 150 mg/kg/d, formulated in 10% ethanol, 30% PEG 400, 60% Phosol-50PG): 52%
Cn1cc([C@H]2C[C@]23C(=O)N(CC(F)(F)F)c2ccccc23)c2cc(C(=O)NC3CC3)[nH]c2c1=O [Example 24, N-cyclopropyl-6-methyl-7-oxo-4-[(1S,2R)-2′-oxo-′-(2,2,2-trifluoroethyl)-1′,2′-dihydrospiro[cyclopropane-1,3′-indol]-2-yl]-6,7-dihydro-1H-pyrrolo[2,3-c]pyridine-2-carboxamide] | 4.21 | –
Cn1cc([C@@H]2C[C@@]23C(=O)N(CC(F)(F)F)c2ccccc23)c2cc(C(=O)NC3CC3)[nH]c2c1=O [Example 25, N-cyclopropyl-6-methyl-7-oxo-4-[(1R,2S)-2′-oxo-′-(2,2,2-trifluoroethyl)-1′,2′-dihydrospiro[cyclopropane-1,3′-indol]-2-yl]-6,7-dihydro-1H-pyrrolo[2,3-c]pyridine-2-carboxamide] | > 13 | –
CN1C(=O)[C@]2(C[C@@H]2c2cn(C)c(=O)c3[nH]c(-c4cnn(C)c4)cc23)c2ccccc21 [Example 34, (1S,2R)-1′-methyl-2-[6-methyl-2-(1-methyl-1H-pyrazol-4-yl)-7-oxo-6,7-dihydro-1H-pyrrolo[2,3-c]pyridin-4-yl]spiro[cyclopropane-1,3′-indol]-2′(1H)-one] | 0.441 | % TGI (SKM-1 xenograft tumors; dose 38 mg/kg/d, formulated as a nanosuspension): 42%; % TGI (SKM-1 xenograft tumors; dose 75 mg/kg/d, formulated as a nanosuspension): 74%
CN1C(=O)[C@@]2(C[C@H]2c2cn(C)c(=O)c3[nH]c(-c4cnn(C)c4)cc23)c2ccccc21 [Example 35, (1R,2S)-1′-methyl-2-[6-methyl-2-(1-methyl-1H-pyrazol-4-yl)-7-oxo-6,7-dihydro-1H-pyrrolo[2,3-c]pyridin-4-yl]spiro[cyclopropane-1,3′-indol]-2′(1H)-one] | 1.3 | –
CN1C(=O)[C@]2(C[C@@H]2c2cn(C)c(=O)c3[nH]c(-c4cccnc4)cc23)c2ccccc21 [Example 48, (1S,2R)-1′-methyl-2-[6-methyl-7-oxo-2-(pyridin-3-yl)-6,7-dihydro-1H-pyrrolo[2,3-c]pyridin-4-yl]spiro[cyclopropane-1,3′-indol]-2′(1H)-one] | 1.42 | –
CN1C(=O)[C@@]2(C[C@H]2c2cn(C)c(=O)c3[nH]c(-c4cccnc4)cc23)c2ccccc21 [Example 49, (1R,2S)-1′-methyl-2-[6-methyl-7-oxo-2-(pyridin-3-yl)-6,7-dihydro-1H-pyrrolo[2,3-c]pyridin-4-yl]spiro[cyclopropane-1,3′-indol]-2′(1H)-one] | 4.14 | –
CN1C(=O)[C@]2(C[C@@H]2c2cn(C)c(=O)c3[nH]c(-c4ccnc(C(F)(F)F)c4)cc23)c2ccccc21 [Example 52, (1S,2R)-1′-methyl-2-{6-methyl-7-oxo-2-[2-(trifluoromethyl)pyridin-4-yl]-6,7-dihydro-1H-pyrrolo[2,3-c]pyridin-4-yl}spiro[cyclopropane-1,3′-indol]-2′(1H)-one] | > 13 | –
CN1C(=O)[C@@]2(C[C@H]2c2cn(C)c(=O)c3[nH]c(-c4ccnc(C(F)(F)F)c4)cc23)c2ccccc21 [Example 53, (1R,2S)-1′-methyl-2-{6-methyl-7-oxo-2-[2-(trifluoromethyl)pyridin-4-yl]-6,7-dihydro-1H-pyrrolo[2,3-c]pyridin-4-yl}spiro[cyclopropane-1,3′-indol]-2′(1H)-one] | 2.82 | –
